One data set deals with T1, human ETB receptor (Homo sapiens, UniProt P24530).
T1 construct: expressed in transfected cells; host or cells: COS7 cells, membrane preparation
T1 sequence (P24530 27-442): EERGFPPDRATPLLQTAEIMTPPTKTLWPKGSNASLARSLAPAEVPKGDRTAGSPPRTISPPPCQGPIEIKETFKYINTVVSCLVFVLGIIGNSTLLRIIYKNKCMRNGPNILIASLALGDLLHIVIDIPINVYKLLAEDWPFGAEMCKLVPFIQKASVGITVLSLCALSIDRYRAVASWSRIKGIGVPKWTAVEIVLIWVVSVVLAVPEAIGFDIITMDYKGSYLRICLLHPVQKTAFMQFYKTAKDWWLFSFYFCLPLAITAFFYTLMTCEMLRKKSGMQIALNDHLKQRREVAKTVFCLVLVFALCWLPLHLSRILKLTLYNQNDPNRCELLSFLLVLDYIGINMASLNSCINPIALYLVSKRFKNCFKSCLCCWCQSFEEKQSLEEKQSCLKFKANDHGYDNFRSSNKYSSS
The data set can be described thus: Binding Test #2: inhibition of 125I-labeled ET-1 binding to ETB receptors (transfected COS7 cell membranes). To be noted: ETB over ETA; preferably at least 3-fold greater affinity, more preferably 5-fold or more. From the text: (§1) Compounds that are potential endothelin antagonists are identified by testing their ability to compete with ^125I-labeled ET-1 for binding to human ETA receptors or ETB receptors present on isolated cell membranes. The effectiveness of the test compound as an antagonist or agonist of the biological tissue response of endothelin can also be assessed by measuring the effect on endothelin induced contraction of isolated rat thoracic aortic rings. The ability of the compounds to act as antagonists or agonists for ETB receptors can be assess by testing the ability of the compounds are to inhibit endothelin-1 induced prostacyclin release from cultured bovine aortic endothelial cells.
(§2) B. Endothelin Binding Inhibition—Binding Test #2: Inhibition of Binding to ETB Receptors
(§3) COS7 cells were transfected with DNA encoding the ETB receptor, The resulting cells, which express the human ETB receptor, were grown to confluence in T-150 flasks. Membrane was prepared as described above. The binding assay was performed as described above using the membrane preparation diluted with binding buffer to a concentration of 1 μg/50 μl.
Briefly, the COS7 cells, described above, that had been transfected with DNA encoding the ETB receptor and express the human ETB receptor on their surfaces were grown to confluence in T-175 flasks. Cells from multiple flasks were collected by scraping, pooled and centrifuged for 10 min at 190×g. The cells were resuspended in phosphate buffered saline (PBS) containing 10 mM EDTA using a Tenbroeck homogenizer. The suspension was centrifuged at 4° C. 57,800×g for 15 min, the pellet was resuspended in 5 ml of buffer A (5 mM HEPES buffer, pH 7.4 containing aprotinin (100 KIU/ml)) and then frozen and thawed once. Five ml of Buffer B (5 mM HEPES Buffer, pH 7.4 containing 10 mM MnCl2 and 0.001% deoxyribonuclease Type 1) was added, the suspension mixed by inversion and then incubated at 37° C. for 30 minutes. The mixture was centrifuged at 57,800×g as described above, the pellet washed twice with buffer A and then resuspended in buffer C (30 mM HEPES buffer, pH 7.4 containing aprotinin (100 KIU/ml) to give a final protein concentration of 2 mg/ml.
The binding assay was performed as described above using the membrane preparation diluted to give 1 μg/50 μl of binding buffer.

A further data set deals with ETA and ETB receptors. Briefly: Endothelin binding inhibition assays of the Examples, result stated for ETA and/or ETB. To be noted: relative to the other compounds listed; in vitro binding assays. On the set-up: species or system human.
Source text: as §1
(§4) A. Endothelin Binding Inhibition—Binding Test #1: Inhibition of Binding to ETA Receptors
(§5) TE 671 cells (ATCC Accession No. HTB 139) express ETA receptors. These cells were grown to confluence in T-175 flasks. Cells from multiple flasks were collected by scraping, pooled and centrifuged for 10 min at 190×g. The cells were resuspended in phosphate buffered saline (PBS) containing 10 mM EDTA using a Tenbroeck homogenizer. The suspension was centrifuged at 4° C. at 57,800×g for 15 min, the pellet was resuspended in 5 ml of buffer A (5 mM HEPES buffer, pH 7.4 containing aprotinin (100 KIU/ml)) and then frozen and thawed once. 5 ml of Buffer B (5 mM HEPES Buffer, pH 7.4 containing 10 mM MnCl2 and 0.001% deoxyribonuclease Type 1) was added, the suspension mixed by inversion and then incubated at 37° C. for 30 minutes. The mixture was centrifuged at 57,800×g as described above, the pellet washed twice with buffer A and then resuspended in buffer C (30 mM HEPES buffer, pH 7.4 containing aprotinin (100 KIU/ml) to give a final protein concentration of 2 mg/ml and stored at −70° C. until use.
(§6) The membrane suspension was diluted with binding buffer (30 mM HEPES buffer, pH 7.4 containing 150 mM NaCl, 5 mM MgCl2, 0.5% Bacitracin) to a concentration of 8 μg/50 μl. ^25I-endothelin-1 (3,000 cpm, […]) was added to 50 μl of either: (A) endothelin-1 (for non specific binding) to give a final concentration 80 nM); (B) binding buffer (for total binding); or (C) a test compound (final concentration 1 nM to 100 μM). The membrane suspension (50 μl), containing up to 8 μg of membrane protein, was added to each of (A), (B), or (C). Mixtures were shaken, and incubated at 4° C. for 16-18 hours, and then centrifuged at 4° C. for 25 min at 2,500×g. Alternatively, the incubation was conducted at 24° C. When incubated at 24° C., the IC50 concentrations are 2- to 10-fold higher than when the incubation is conducted at 4° C. This, must be kept in mind when comparing IC50 concentrations among compounds provided herein.
The supernatant, containing unbound radioactivity, was decanted and the pellet counted on a Genesys multiwell gamma counter. The degree of inhibition of binding (D) was calculated according to the following equation: [formula]
Each test was generally performed in triplicate.
as §2, §3
Briefly, the COS7 cells, described above, that had been transfected with DNA encoding the ETB receptor and express the human ETB receptor on their surfaces were grown to confluence in T-175 flasks. Cells from multiple flasks were collected by scraping, pooled and centrifuged for 10 min at 190×g. The cells were resuspended in phosphate buffered saline (PBS) containing 10 mM EDTA using a Tenbroeck homogenizer. The suspension was centrifuged at 4° C. […]

A further data set deals with T2, human ETA receptors (Homo sapiens, UniProt P25101).
T2 construct: endogenous in cells; host or cells: TE 671 cells (ATCC HTB 139), membrane preparation
T2 sequence (P25101 21-427): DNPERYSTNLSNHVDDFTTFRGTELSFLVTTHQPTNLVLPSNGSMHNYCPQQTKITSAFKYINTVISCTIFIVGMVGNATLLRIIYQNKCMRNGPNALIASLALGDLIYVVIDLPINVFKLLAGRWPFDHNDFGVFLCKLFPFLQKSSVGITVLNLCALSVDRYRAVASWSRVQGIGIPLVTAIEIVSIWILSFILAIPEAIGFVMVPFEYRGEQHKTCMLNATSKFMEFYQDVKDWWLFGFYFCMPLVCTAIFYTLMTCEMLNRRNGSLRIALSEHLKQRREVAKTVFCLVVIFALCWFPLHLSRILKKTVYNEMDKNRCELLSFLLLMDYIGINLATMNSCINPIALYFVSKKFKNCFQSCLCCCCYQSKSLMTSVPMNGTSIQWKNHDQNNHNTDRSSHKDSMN
The data set can be described thus: Binding Test #1: inhibition of 125I-labeled ET-1 binding to ETA receptors (TE 671 cell membranes). The following applies: ETA over ETB; preferably at least 3-fold greater affinity, more preferably 5-fold or more.
Source text: as §1, §4, §5
as §6, with “When incubated at 24° C., the IC50 concentrations are 2- to 10-fold higher than when the incubation is conducted at 4° C. This, must be kept in mind when comparing IC50 concentrations among compounds provided herein.” left out
The supernatant, containing unbound radioactivity, was decanted and the pellet counted on a Genesys multiwell gamma counter. The degree of inhibition of binding (D) was calculated according to the following equation: [formula] […]

Consider `O=C(O)CCc1cc2c(cc1Oc1cccc(Oc3ccc4c(c3)OCO4)c1C(=O)O)OCO2` [Example 19, 2-(3,4-methylenedioxy)phenoxy-6-[2-carboxyethyl-4,5-(methylenedioxy)phenoxy]benzoic acid], for which, at human ETB receptor, the “ETB selective (interact with greater affinity with one receptor sub-type than with the other)” value is reported as “ETB selective”. The “More active among these compounds” value in the data set with ETA and ETB receptors is listed as “More active”.

In the case of `Cc1ccc(Oc2cccc(Oc3ccc4c(c3)OCO4)c2C(=O)O)c(Br)c1` [Example 7, 2-(2-Bromo-4-methylphenoxy)-6-[3,4-(methylenedioxy)phenoxy]benzoic acid], the “More active among these compounds” value in the data set with ETA and ETB receptors is recorded as “More active”.

As for “4,6-Bis[2-carboxy-3,4-(methylenedioxy)phenoxy]-2-(methylthio)pyrimidine”, the “ETA selective (interact with greater affinity with one receptor sub-type than with the other)” value at human ETA receptors is “ETA selective”.

Consider “4-[2-carboxy-3,4-(methylenedioxy)phenoxy]-6-[3,4-(methylenedioxy)phenoxy]-2-(methylthio)-pyrimidine”, for which the “ETA selective (interact with greater affinity with one receptor sub-type than with the other)” value at human ETA receptors is reported as “ETA selective”.

In the case of “2-[3,4-(methylenedioxy)phenoxy]-6-[2-(1-propenyl)-3,4-(methylenedioxy)phenoxy]benzoic acid [Example 17]”, the “ETB selective (interact with greater affinity with one receptor sub-type than with the other)” value on human ETB receptor was “ETB selective”. In the data set with ETA and ETB receptors, the “More active among these compounds” value is “More active”.

For the compound `O=C(O)/C=C/c1cc2c(cc1Oc1cccc(Oc3ccc4c(c3)OCO4)c1C(=O)O)OCO2` [Example 20, 2-(3,4-methylenedioxy)phenoxy-6-[2-carboxy-trans-ethenyl-4,5-(methylenedioxy)phenoxy]benzoic acid], in the data set with ETA and ETB receptors, the “More active among these compounds” value is “More active”.

Regarding `COc1ccc(Sc2cccc(Oc3ccc4c(c3)OCO4)c2C(=O)O)cc1` [Example 12, 2-(4-methoxythiophenoxy)-6-[3,4-(methylenedioxy)phenoxy]benzoic acid], the “More active among these compounds” value in the data set with ETA and ETB receptors was “More active”.

With `Cc1ccc(Oc2cccc(Oc3ccc4c(c3)OCO4)c2C(=O)O)cc1` [Example 2, 2-[3,4-(methylenedioxy)phenoxy]-6-(4-methylphenoxy)benzoic acid], the “More active among these compounds” value with ETA and ETB receptors is “More active”.

Regarding “2-[3,4-(methylenedioxy)phenoxy]-6-[(2-carboxyethyl)-4-methoxyphenoxy]benzoic acid [Example 23]”, in the data set with ETA and ETB receptors, the “More active among these compounds” value was “More active”.

Turning to `COc1cccc(Oc2cccc(Oc3ccc4c(c3)OCO4)c2C(=O)O)c1` [Example 26, 2-[3,4-(methylenedioxy)phenoxy]-6-(3-methoxyphenoxy)benzoic acid], the “More active among these compounds” value with ETA and ETB receptors was “More active”.

Turning to `O=C(O)Cc1ccc(Oc2cccc(Oc3ccc4c(c3)OCO4)c2C(=O)O)cc1` [Example 14, 2-[(4-Carboxymethyl)phenoxy]-6-[3,4-(methylenedioxy)phenoxy]benzoic acid], on human ETA receptors, the “ETA selective (interact with greater affinity with one receptor sub-type than with the other)” value was “ETA selective”.

What is called melting point is the temperature, or range, at which the solid turns liquid. `COc1ccc(Oc2cccc(Oc3ccc(OC)cc3)c2C(=O)O)cc1` [Example 6, 2,6-bis-(4-methoxyphenoxy)benzoic acid] came in with a melting point of 222 to 224 °C. For the same compound, the “ETB selective (interact with greater affinity with one receptor sub-type than with the other)” value at human ETB receptor is “ETB selective”.

For the compound `Cc1cccc(Oc2cccc(Oc3ccc4c(c3)OCO4)c2C(=O)O)c1` [Example 11, 2-[3,4-(methylenedioxy)phenoxy]-6-(3-methylphenoxy)benzoic acid], the “More active among these compounds” value with ETA and ETB receptors is given as “More active”.

`O=C(O)c1c(Oc2ccccc2)cccc1Oc1ccccc1` [Example 9, 2,6-diphenoxybenzoic acid]: the melting point was 150 to 153 °C.

For the compound `CCCc1cc2c(cc1Oc1cccc(Oc3ccc4c(c3)OCO4)c1C(=O)O)OCO2` [Example 18, 2-(3,4-methylenedioxy)phenoxy-6-[2-propyl-4,5-(methylenedioxy)phenoxy]benzoic acid], the “More active among these compounds” value in the data set with ETA and ETB receptors is “More active”.

Consider `O=C(O)Cc1cccc(Oc2cccc(Oc3ccc4c(c3)OCO4)c2C(=O)O)c1` [Example 13, 2-[(3-Carboxymethyl)phenoxy]-6-[3,4-(methylenedioxy)phenoxy]benzoic acid], for which the “ETA selective (interact with greater affinity with one receptor sub-type than with the other)” value on human ETA receptors is listed as “ETA selective”. Besides, the “ETB selective (interact with greater affinity with one receptor sub-type than with the other)” value at human ETB receptor is on record as “ETB selective”.

As for “Ethyl 2-[3,4-(methylenedioxy)phenoxy]-6-[2-(carboxyethyl)-4-methoxyphenoxy]benzoate [Example 22]”, the “More active among these compounds” value in the data set with ETA and ETB receptors is on record as “More active”.

In the case of `O=C(O)c1c(Oc2ccc3c(c2)OCO3)cccc1Oc1ccc2c(c1)OCO2` [Example 5, 2,6-bis-[3,4-(methylenedioxy)phenoxy]benzoic acid], the “More active among these compounds” value in the data set on ETA and ETB receptors was “More active”.

As for `COc1ccc(Oc2cccc(Oc3ccc4c(c3)OCO4)c2C(=O)O)cc1` [Example 1, 2-(4-Methoxyphenoxy)-6-[3,4-(methylenedioxy)phenoxy]benzoic acid], the “More active among these compounds” value in the data set with ETA and ETB receptors was “More active”.
